Test results: patent US20150150159A1, “METHOD FOR CONTROLLING FUNGAL DISEASES IN MUSHROOM PRODUCTION” (DSM IP ASSETS B.V., priority 2012, published 2015)

Tested on: Trichoderma harzianum
Experiment: In vitro antifungal activity assay in 96-well microtiter plates (mould growth reduction, Colby synergy)
Assay type: cell-based
Method: The following compositions are tested: • Control (no active ingredient), • 1.25 ppm natamycin (DSM Food Specialties, Delft, The Netherlands), • 0.5, 1.0, 1.25 or 1.5 ppm thiabendazole, • 1.25 ppm natamycin+0.5 ppm thiabendazole, • 1.25 ppm natamycin+1.0 ppm thiabendazole, • 1.25 ppm natamycin+1.25 ppm thiabendazole, • 1.25 ppm natamycin+1.5 ppm thiabendazole. […] Subsequently, 100 μl of a Trichoderma harzianum suspension prepared in PCB medium is used to inoculate each well with 5.0×10^3 spores/ml. […] After incubation of the microtiter plates for 3, 5, 10 and 17 days at 25° C., the in vitro antifungal activity (%) of the individual active ingredients was assessed by calculating the reduction in mould growth observed in the presence of the active ingredient in comparison to the mould growth observed in the absence of the active ingredient. The expected antifungal activity (E in %) of the active ingredient combination was calculated according to the Colby equation (Colby, 1967): E=X+Y−[(X·Y)/100] wherein X and Y are the observed antifungal activities (in %) of the individual active ingredients X and Y, respectively. If the observed antifungal activity (O in %) of the combination exceeds the expected antifungal activity (E in %) of the combination and the resulting synergy factor O/E is thus >1.0, the combined application of the active ingredients leads to a synergistic antifungal effect.

Measured: Observed antifungal activity O (%)

C[C@@H]1C/C=C/C=C/C=C/C=C/[C@H](O[C@@H]2O[C@H](C)[C@@H](O)[C@H](N)[C@@H]2O)C[C@@H]2O[C@](O)(C[C@@H](O)C[C@H]3O[C@@H]3/C=C/C(=O)O1)C[C@H](O)[C@H]2C(=O)O [Natamycin, natamycin]
0%: Natamycin 1.25 ppm, 3 days incubation at 25° C. | Natamycin 1.25 ppm, 5 days incubation at 25° C. | Natamycin 1.25 ppm, 10 days incubation at 25° C. | Natamycin 1.25 ppm, 17 days incubation at 25° C.

c1ccc2[nH]c(-c3cscn3)nc2c1 [Thiabendazole, 4-(1H-1,3-benzodiazol-2-yl)-1,3-thiazole]
0%: Thiabendazole 0.5 ppm, 3 days incubation at 25° C. | Thiabendazole 1.0 ppm, 5 days incubation at 25° C. | Thiabendazole 1.25 ppm, 5 days incubation at 25° C. | Thiabendazole 1.25 ppm, 10 days incubation at 25° C. | Thiabendazole 1.5 ppm, 10 days incubation at 25° C. | Thiabendazole 1.5 ppm, 17 days incubation at 25° C.
